Assay results: patent publication US8535741B2, “Method and composition for administering bioactive compounds derived from Morinda citrifolia” (priority 2006, dated 2013)

Legend:
[1] = test system: human epidermoid carcinoma cell line-A431; assay: cells; assay type: cell-based; conditions: for Percent Grown: A431, 72-hour exposure
Protocol: In this example, assays were performed to detect changes in cell proliferation based on the ability of viable cells to cause alamarBlue to change from non-fluorescent blue to a reduced, fluorescent red form. With the results obtained from the alamarBlue reaction, cell proliferation can be quantified and metabolic activity of viable cells can be examined. Test compounds including Morinda citrifolia leaf extract, leaf juice, and roast leaf were tested for their effects on the proliferation of human epidermoid carcinoma cell line-A431 at assay concentrations from 0.01 to 100 μg/ml or 0.0001% to 1% through serial 10-fold dilutions.
Morinda citrifolia leaf extract, leaf juice, and roast leaf were provided by Tahitian Noni International, Inc. for in vitro anti-tumor studies. The Morinda citrifolia compounds were dissolved in sterile distilled water and then diluted with sterile distilled water to obtain initial working solutions of 10000, 1000, 100, 10, and 1 μg/ml for the leaf extract and roast leaf, as well as 100, 10, 1, 0.1 and 0.01% for the leaf juice. In testing, 100-fold dilution was made in culture media to get final assay concentrations of 100, 10, 1, 0.1 and 0.01 μg/ml, and 1, 0.1, 0.01, 0.001 and 0.0001%, respectively.
The tumor cell line, A431 (human epidermoid carcinoma), obtained from American Type Culture Collection (ATCC CRL-1555), was incubated in an air atmosphere of 5% CO2 at 37° C. The culture medium was used with Dulbecco's Modified Eagle's medium, 90%; Fetal Bovine Serum, 10% and supplemented with 1% Antibiotic-Antimycotic.
The anti-proliferation for the test substances was evaluated. Aliquots of 100 µl of cell suspension (about 3×10^3/well) were placed in 96-well microtiter plates in an atmosphere of 5% CO2 at 37° C. […] Two test compounds, leaf extract and roast leaf, were evaluated at concentrations of […]. The other compound, leaf juice, was evaluated at concentrations of 1, 0.1, 0.01, 0.001 and 0.0001%. At the end of incubation, 20 µl of 90% alamarBlue reagent was added to each well for another 6-hour incubation before detection of cell viability by fluorescent intensity. Fluorescent intensity was measured using a Spectrafluor Plus plate reader with excitation at 530 nm and demission at 590 nm.
IC50, TGI, and LC50 values were then determined. […] TGI (Total Growth Inhibition) is the test compound concentration where the number or mass of treated cells at the end of the experiment was equal to that at time0. […] The measured results were calculated by the following formula: PG(%)=100×(Mean Ftest−Mean Ftime0)^/(Mean Fctr l−Mean Ftime0)
If (Mean Ftest−Mean Ftime0)^<0, then PG(%)−100×(Mean Ftest−Mean Ftime0)/(Mean Ftime0−Mean Fblank)
Where: PG=percent growth; Mean Ftime0=The average of 2 measured fluorescent intensities of reduced alamarBlue at the time just before exposure of cells to the test substance; Mean Ftest=The average of 2 measured fluorescent intensities of alamarBlue after 72-hour exposure of cells to the test substance; Mean Fctrl=The average of 2 measured fluorescent intensities of alamarBlue after 72-hour incubation without the test substance; and Mean Fblank=The average of 2 measured fluorescent intensities of alamarBlue in medium without cells after 72-hour incubation.
A decrease of 50% or more (≧50%) in fluorescent intensity relative to the vehicle-treated control indicated significant cell growth inhibition, cytostatic or cytotoxic activity, and a semi-quantitative IC50, TGI, and LC50 were then determined by nonlinear regression using GraphPad Prism (GraphPad Software, USA).

Adenosine A2A = Adenosine A2A (Homo sapiens, UniProt P29274); assay: bio-assay on Adenosine A2A; conditions: isolated from squeezed juice of fresh Morinda citrifolia leaf
Adenosine A2A, sequence (P29274 whole entry): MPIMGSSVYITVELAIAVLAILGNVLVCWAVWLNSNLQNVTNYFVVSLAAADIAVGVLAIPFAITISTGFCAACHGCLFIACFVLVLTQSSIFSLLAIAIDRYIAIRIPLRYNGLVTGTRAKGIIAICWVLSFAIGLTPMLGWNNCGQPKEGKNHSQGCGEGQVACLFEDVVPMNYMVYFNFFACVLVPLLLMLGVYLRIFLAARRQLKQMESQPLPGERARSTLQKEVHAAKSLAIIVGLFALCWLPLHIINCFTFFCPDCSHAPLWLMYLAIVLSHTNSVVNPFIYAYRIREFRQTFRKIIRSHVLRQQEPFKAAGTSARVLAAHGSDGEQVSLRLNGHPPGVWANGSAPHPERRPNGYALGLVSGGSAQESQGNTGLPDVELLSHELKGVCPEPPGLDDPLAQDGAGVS
From the text: Their structures have been determined by NMR techniques and mass spectrometry and they have been identified as Pyro-phorbide a, Pheoporbide a, Purpin 7, and Pheophorbide Phytolester. The isolation and characterization of the above referenced bioactive compounds provides a significant explanation for the anti-inflammatory and analgesic properties of extracts derived from the Morinda citrifolia plant, particularly from the leaf of the plant.

Compound: CO[C@@]12[C@H](COC(N)=O)C3=C(C(=O)C(C)=C(N)C3=O)N1C[C@@H]1N[C@@H]12 [Mitomycin]
- Percent Grown ([1]; Concentration 0.001 (ttM)): 101 +/− 5%
- Percent Grown ([1]; Concentration 0.01 (ttM)): 82 +/− 3%
- Percent Grown ([1]; Concentration 0.1 (ttM)): 7 +/− 3%
- Percent Grown ([1]; Concentration 1 (ttM)): 35 +/− 8%
- Percent Grown ([1]; Concentration 10 (ttM)): 97 +/− 0%
- IC50 ([1]; Homo sapiens, A-431, Tumor, Skin (A431), semi-quantitative, nonlinear regression, read-out: IC50 (50% Inhibition Concentration)): 35 nM
- TGI (Total Growth Inhibition) ([1]; Tumor, Skin (A431), semi-quantitative, nonlinear regression): 190 nM
- inhibitory activity on tumor cell growth ([1]; at <10 p.M, A431): Significant inhibitory activity

Compound: Pheophorbide Phytolester
- bioactivity in bio-assay on Adenosine A2A (Adenosine A2A): significant bioactivity

Compound: Pheoporbide a
- bioactivity in bio-assay on Adenosine A2A (Adenosine A2A): significant bioactivity

Compound: Purpin 7
- bioactivity in bio-assay on Adenosine A2A (Adenosine A2A): significant bioactivity

Compound: Pyro-phorbide a
- bioactivity in bio-assay on Adenosine A2A (Adenosine A2A): significant bioactivity
